As usually defined, the IC50 is the concentration that inhibits the measured activity by half. Low values mean greater potency in that assay, high ones weaker potency in that assay.

The experiment addresses T1, Tumor necrosis factor receptor superfamily member 1A (Homo sapiens, UniProt P19438).
T1 sequence (P19438 whole entry): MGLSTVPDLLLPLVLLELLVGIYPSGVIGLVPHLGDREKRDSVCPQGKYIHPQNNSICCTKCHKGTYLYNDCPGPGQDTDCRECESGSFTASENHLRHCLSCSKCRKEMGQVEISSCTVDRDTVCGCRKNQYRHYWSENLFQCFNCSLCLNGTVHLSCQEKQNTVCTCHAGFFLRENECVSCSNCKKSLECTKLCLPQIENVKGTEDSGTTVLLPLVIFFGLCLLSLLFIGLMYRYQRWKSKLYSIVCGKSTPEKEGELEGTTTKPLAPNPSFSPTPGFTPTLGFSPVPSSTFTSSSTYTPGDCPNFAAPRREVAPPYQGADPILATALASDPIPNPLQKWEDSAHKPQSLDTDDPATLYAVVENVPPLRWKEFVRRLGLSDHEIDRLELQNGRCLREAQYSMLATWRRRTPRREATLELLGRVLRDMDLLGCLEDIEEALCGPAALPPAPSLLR
Briefly: ChEBML_224214. The source says:
Inhibition of TNF-alpha-induced VCAM-1 expression
`COc1ccc(/C=C/C(=O)c2ccc(OC)cc2OC)cc1` [1-(2,4-Dimethoxy-phenyl)-3-(4-methoxy-phenyl)-propenone] returned an IC50 of 7 µM. As for `COc1ccc(C(=O)/C=C/c2ccccc2)cc1` [1-(4-methoxyphenyl)-3-phenylprop-2-en-1-one (6)], the figure is 14 µM. Turning to `COc1cc(OC)c(-c2cc3ccccc3s2)cc1/C=C/C(=O)c1ccc(OC(C)(C)C(=O)O)cc1` [2-{4-[(E)-3-(5-Benzo[b]thiophen-2-yl-2,4-dimethoxy-phenyl)-acryloyl]-phenoxy}-2-methyl-propionic acid], the midpoint of inhibition, the IC50, lay at 6 µM.

`COc1cc(OC(C)(C)C(=O)O)c(/C=C/C(=O)c2ccc(C(F)(F)F)cc2)cc1-c1cccs1` [2-{5-Methoxy-2-[(E)-3-oxo-3-(4-trifluoromethyl-phenyl)-propenyl]-4-thiophen-2-yl-phenoxy}-2-methyl-propionic acid] yielded an IC50 of 4 µM. With `COc1ccc(C(=O)/C=C/c2ccccc2)cc1OC` [3',4'-dimethoxychalcone] the figure was 8 µM; with `COc1ccc(C(=O)/C=C/c2ccc(OC)cc2OC)cc1` [3-(2,4-Dimethoxy-phenyl)-1-(4-methoxy-phenyl)-propenone], 29 µM; with `COc1cc(OC)c(CCC(=O)c2cc(OC)c(OC)c(OC)c2)cc1Br` [3-(5-Bromo-2,4-dimethoxy-phenyl)-1-(3,4,5-trimethoxy-phenyl)-propan-1-one], above 50 µM. For `COc1ccc(Br)cc1CCC(=O)c1cc(OC)c(OC)c(OC)c1` [3-(5-Bromo-2-methoxy-phenyl)-1-(3,4,5-trimethoxy-phenyl)-propan-1-one], the IC50 was above 50 µM. With `COc1cc(C(=O)/C=C/c2ccccc2)cc(OC)c1OC` [3-phenyl-1-(3,4,5-trimethoxyphenyl)prop-2-en-1-one] the figure was 6 µM; with `CCOC(=O)c1ccc(COc2ccc(C(=O)/C=C/c3cc(-c4cccs4)ccc3OC)cc2OC)cc1` [4-{2-Methoxy-4-[(E)-3-(2-methoxy-5-thiophen-2-yl-phenyl)-acryloyl]-phenoxymethyl}-benzoic acid ethyl ester], 4 µM; with `COc1ccc(-c2cccs2)cc1/C=C/C(=O)c1ccc(OCc2ccc(C(=O)O)cc2)c(OC)c1` [4-{2-Methoxy-4-[(E)-3-(2-methoxy-5-thiophen-2-yl-phenyl)-acryloyl]-phenoxymethyl}-benzoic acid], 5 µM. As for `COc1ccc(-c2cccs2)cc1C=CC(=O)c1ccc(OCc2ccc(NC(=O)OC(C)(C)C)cc2)c(OC)c1` [(4-{2-Methoxy-4-[(E)-3-(2-methoxy-5-thiophen-2-yl-phenyl)-acryloyl]-phenoxymethyl}-phenyl)-carbamic acid tert-butyl ester], the figure is above 50 µM; as for `O=C(/C=C/c1ccc(F)cc1)c1ccc(F)cc1` [(E)-1,3-Bis-(4-fluoro-phenyl)-propenone], 25 µM.

As to `COc1cc(/C=C/C(=O)c2ccc3c(c2)OC(O)(O)O3)cc(-c2cccs2)c1OC` [(E)-1-(2,2-Dihydroxy-benzo[1,3]dioxol-5-yl)-3-(3,4-dimethoxy-5-thiophen-2-yl-phenyl)-propenone], the IC50 stood at 1 µM. As for `COc1ccc(OC)c(C(=O)/C=C/c2cc(-c3cccs3)ccc2OC)c1` [(E)-1-(2,5-Dimethoxy-phenyl)-3-(2-methoxy-5-thiophen-2-yl-phenyl)-propenone], the figure is 2 µM; as for `COc1ccc(-c2cccs2)cc1/C=C/C(=O)c1c(OC)cccc1OC` [(E)-1-(2,6-Dimethoxy-phenyl)-3-(2-methoxy-5-thiophen-2-yl-phenyl)-propenone], 3 µM; as for `COc1ccc(/C=C/C(=O)c2ccc(OC)c(OC)c2)cc1` [(E)-1-(3',4'-Dimethoxyphenyl)-3-(4''-methoxyphenyl)prop-2-en-1-one], 6 µM. As for `COc1cc(-c2cccc(C(C)=O)c2)ccc1C(=O)C=Cc1cc(OC)c(OC)c(OC)c1` [(E)-1-(3'-Acetyl-3-methoxy-biphenyl-4-yl)-3-(3,4,5-trimethoxy-phenyl)-propenone], the figure is 4 µM; as for `COc1ccc(-c2cccs2)cc1/C=C/C(=O)c1ccc(OC)c(OC)c1` [(E)-1-(3,4-Dimethoxy-phenyl)-3-(2-methoxy-5-thiophen-2-yl-phenyl)-propenone], 3 µM.

`COc1ccc(C(=O)/C=C/c2ccc(-c3cccs3)cc2)cc1OC` [(E)-1-(3,4-Dimethoxy-phenyl)-3-(4-thiophen-2-yl-phenyl)-propenone] came in with a 50% inhibitory concentration (IC50) of 12 µM. As for `COc1ccc(-c2cc(C)cs2)cc1/C=C/C(=O)c1ccc(OC)c(OC)c1` [(E)-1-(3,4-Dimethoxy-phenyl)-3-[2-methoxy-5-(4-methyl-thiophen-2-yl)-phenyl]-propenone], the figure is 2 µM; as for `COc1ccc(-c2ccc(C)s2)cc1/C=C/C(=O)c1ccc(OC)c(OC)c1` [(E)-1-(3,4-Dimethoxy-phenyl)-3-[2-methoxy-5-(5-methyl-thiophen-2-yl)-phenyl]-propenone], 2 µM; as for `COc1ccc(/C=C/C(=O)c2cc(C(C)(C)C)c(O)c(C(C)(C)C)c2)cc1` [(E)-1-(3,5-Di-tert-butyl-4-hydroxy-phenyl)-3-(4-methoxy-phenyl)-propenone], above 50 µM. With `CC(C)(C)c1cc(C(=O)/C=C/c2ccccc2)cc(C(C)(C)C)c1O` [(E)-1-(3,5-Di-tert-butyl-4-hydroxy-phenyl)-3-phenyl-propenone] the figure was 47 µM. In the case of `COc1ccc(/C=C/C(=O)c2cc(C(C)(C)C)c(OC)c(C(C)(C)C)c2)cc1` [(E)-1-(3,5-Di-tert-butyl-4-methoxy-phenyl)-3-(4-methoxy-phenyl)-propenone], the IC50 was 17 µM. With `COc1c(C(C)(C)C)cc(C(=O)/C=C/c2ccccc2)cc1C(C)(C)C` [(E)-1-(3,5-Di-tert-butyl-4-methoxy-phenyl)-3-phenyl-propenone] the figure was 9 µM. With `COc1cc(OC)cc(C(=O)/C=C/c2cc(-c3cccs3)ccc2OC)c1` [(E)-1-(3,5-Dimethoxy-phenyl)-3-(2-methoxy-5-thiophen-2-yl-phenyl)-propenone] the figure was 2 µM; with `COc1ccc(-c2cc(C(=O)/C=C/c3cc(OC)c(OC)c(OC)c3)c(OC)cc2OC)c(OC)c1` [(E)-1-(4,6,2',4'-Tetramethoxy-biphenyl-3-yl)-3-(3,4,5-trimethoxy-phenyl)-propenone], 3 µM; with `COc1cc(/C=C/C(=O)c2cc(OC)c(OCc3ccccc3)c(OC)c2)cc(Br)c1OC` [(E)-1-(4-Benzyloxy-3,5-dimethoxy-phenyl)-3-(3-bromo-4,5-dimethoxy-phenyl)-propenone], above 50 µM. As for `O=C(/C=C/c1ccc(F)c(-c2cccs2)c1)c1ccc(F)cc1` [(E)-1-(4-Fluoro-phenyl)-3-(4-fluoro-3-thiophen-2-yl-phenyl)-propenone], the figure is 4 µM; as for `COc1cc(C(=O)/C=C/c2cc(-c3cccs3)ccc2OC)ccc1O` [(E)-1-(4-Hydroxy-3-methoxy-phenyl)-3-(2-methoxy-5-thiophen-2-yl-phenyl)-propenone], 7 µM. In turn, `COc1ccc(C(=O)/C=C/c2cc(-c3cccs3)ccc2OC)cc1` [(E)-1-(4-Methoxy-phenyl)-3-(2-methoxy-5-thiophen-2-yl-phenyl)-propenone] yielded an IC50 of 3 µM.
